Like-named read-outs stand apart in the source and are kept apart here.
What was measured:
Type in all cases: cell-based
HCT116 cells = assay: Growth inhibition assay (MTS); conditions: Homo sapiens, HCT116 cells, 48 hours treatment, MTS, read-out: Growth Inhibition (GI50, uM) HCT116
Procedure: (§1) SW480 or HCT116 cells were placed into 96 well microplate (10^4cells/well) and incubated for 24 hours at 37° C. 20 μl of [3-(4,5-dimethylthiazol-2-yl)-5-(3-carboxyphenyl)-2-(4-sulfophenyl)-2H-tetrazolium, inner salt](MTS) solution (Promega) was added into each well and the absorbance after 2 hour incubation at 37° C. (negative control) was read. And then, the cells were treated with TCF4 compound at various concentrations for 48 hours. 20 μl of MTS solution (Promega) was added into each well and incubated for 2 hour at 37° C. Cell viability was measured by reading the absorbance at 490 nm using a microplate reader (Molecular device) and cytotoxicity of a compound at each concentration was calculated.
as §1, with “a test” for “TCF4”

SW480 cells = assay: Growth inhibition assay (MTS); conditions: Homo sapiens, SW480 cells, 48 hours treatment, MTS, read-out: Growth Inhibition (GI50, uM) SW480
Procedure: as §1
as §1, with “a test” for “TCF4”

[1] = tested on: TCF4/β-catenin transcription (TOPFlash) in SW480 cells; assay: Reporter gene assay (TOPFlash luciferase); conditions: Homo sapiens, SW480, Table 4; Reporter gene assay as described in Example 6; read-out: IC50
Procedure, shortened: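 SW480 cells transiently co-transfected with TOPFlash and pRL-null (4:1 µg) using Superfect, then reseeded at 3×10^4 cells/well and incubated overnight at 37 °C. Compound treatment lasted 24 h before luciferase read-out.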

| SMILES | GI50 (HCT116 cells; HCT-116, 48 h, Table 5) | GI50 (SW480 cells; SW480, 48 h, Table 5) | other results |
| --- | --- | --- | --- |
| C=CC[C@@H]1CC(=O)N2[C@H](CN(Cc3cccc(OC)c3OC)C(=O)[C@@H]2Cc2ccc(O)cc2)N1C(=O)NCc1ccccc1 | – | – | GI50 (HCT116 cells; HCT-116, 48 h, Example 21): 4.91 µM; GI50 (SW480 cells; SW480, 48 h, Example 21): 4.1 µM |
| C=CC[C@@H]1CC(=O)N2[C@H](CN(Cc3cccc4cn[nH]c34)C(=O)[C@@H]2Cc2ccc(O)cc2)N1C(=O)NCc1ccccc1 | – | – | GI50 (HCT116 cells; HCT-116, 48 h, Example 21): 2.3 µM; GI50 (SW480 cells; SW480, 48 h, Example 21): 2 µM |
| C=CC[C@@H]1CC(=O)N2[C@H](CN(Cc3cccc4scnc34)C(=O)[C@@H]2Cc2ccc(O)cc2)N1C(=O)NCc1ccccc1 | – | – | GI50 (HCT116 cells; HCT-116, 48 h, Example 21): 1.4 µM; GI50 (SW480 cells; SW480, 48 h, Example 21): 1.2 µM |
| COc1ccccc1CN1C[C@H]2N(C(=O)CN(C)N2C(=O)NCc2ccccc2)[C@@H](Cc2ccc(O)cc2)C1=O [Compound 2] | 2.23 µM | 2.58 µM | – |
| CN1CC(=O)N2[C@@H](Cc3ccc(O)cc3)C(=O)N(Cc3ccc(Cl)cc3)C[C@@H]2N1C(=O)NCc1ccccc1 [Compound 3] | 2.39 µM | 2.73 µM | – |
| CN1CC(=O)N2[C@@H](Cc3ccc(O)cc3)C(=O)N(Cc3ccc(Cl)c(Cl)c3)C[C@@H]2N1C(=O)NCc1ccccc1 [Compound 4] | 1.91 µM | 1.99 µM | – |
| CN1CC(=O)N2[C@@H](Cc3ccc(O)cc3)C(=O)N(Cc3ccccc3OC(F)(F)F)C[C@@H]2N1C(=O)NCc1ccccc1 [Compound 5] | 2.06 µM | 2.32 µM | – |
| CN1CC(=O)N2[C@@H](Cc3ccc(O)cc3)C(=O)N(Cc3ccccc3SC(F)(F)F)C[C@@H]2N1C(=O)NCc1ccccc1 [Compound 6] | 3.91 µM | 3.96 µM | – |
| CN1CC(=O)N2[C@@H](Cc3ccc(O)cc3)C(=O)N(Cc3ccccc3C(F)(F)F)C[C@@H]2N1C(=O)NCc1ccccc1 [Compound 7] | 0.73 µM | 1.22 µM | – |
| CN1CC(=O)N2[C@@H](Cc3ccc(O)cc3)C(=O)N(Cc3cccc4cccnc34)C[C@@H]2N1C(=O)NCc1ccccc1 [Compound 8] | < 0.3 µM | < 0.3 µM | – |
| CN1CC(=O)N2[C@@H](Cc3ccc(O)cc3)C(=O)N(Cc3ccc4ccccc4c3)C[C@@H]2N1C(=O)NCc1ccccc1 [Compound 9] | 1.92 µM | 2.36 µM | – |
| CN1CC(=O)N2[C@@H](Cc3ccc(O)cc3)C(=O)N(Cc3ccccc3C(F)(F)F)C[C@@H]2N1C(=O)NCc1ccccc1 [Compound 10] | – | – | GI50 (HCT116 cells; HCT-116, Table 5): 1.66 µM; GI50 (SW480 cells; Table 5): 2.34 µM |
| CN1CC(=O)N2[C@@H](Cc3ccc(O)cc3)C(=O)N(Cc3cccc(F)c3)C[C@@H]2N1C(=O)NCc1ccccc1 [Compound 11] | – | – | GI50 (HCT116 cells; HCT-116, Table 5): 1.3 µM; GI50 (SW480 cells; Table 5): 1.97 µM |
| CN1CC(=O)N2[C@@H](Cc3ccc(O)cc3)C(=O)N(Cc3ccc(F)cc3)C[C@@H]2N1C(=O)NCc1ccccc1 [Compound 12] | – | – | GI50 (HCT116 cells; HCT-116, Table 5): 1.48 µM; GI50 (SW480 cells; Table 5): 2.54 µM |
| CN1CC(=O)N2[C@@H](Cc3ccc(O)cc3)C(=O)N(Cc3cccc(C(F)(F)F)c3)C[C@@H]2N1C(=O)NCc1ccccc1 [Compound 14] | 2.1 µM | 2.7 µM | – |
| CN1CC(=O)N2C(CN(Cc3ccccc3Cl)C(=O)[C@@H]2Cc2ccc(O)cc2)N1C(=O)NCc1ccccc1 (stereo partly drawn) [Compound 15] | 1.34 µM | 1.68 µM | – |
| CN1CC(=O)N2[C@@H](Cc3ccc(O)cc3)C(=O)N(Cc3cc(F)c(F)c(F)c3)C[C@@H]2N1C(=O)NCc1ccccc1 [Compound 17] | 0.74 µM | 1.12 µM | – |
| CN1CC(=O)N2C(CN(Cc3ccc(Cl)cc3Cl)C(=O)[C@@H]2Cc2ccc(O)cc2)N1C(=O)NCc1ccccc1 (stereo partly drawn) [Compound 18] | 3.52 µM | 4.63 µM | – |
| C[C@H](c1ccccc1)N1C[C@H]2N(C(=O)CN(C)N2C(=O)NCc2ccccc2)[C@@H](Cc2ccc(O)cc2)C1=O [Compound 19] | 1.17 µM | 2.66 µM | – |
| COc1ccc(CN2CC3N(C(=O)CN(C)N3C(=O)NCc3ccccc3)[C@@H](Cc3ccc(O)cc3)C2=O)cc1 (stereo partly drawn) [Compound 20] | 2.75 µM | 5.02 µM | – |
| C=CCN1CC(=O)N2[C@@H](Cc3ccc(O)cc3)C(=O)N(Cc3cccc4sc(Cl)nc34)C[C@@H]2N1C(=O)NCc1ccccc1 [Compound 217] | – | – | IC50 [1]: < 1.6 µM |
| C=CCN1CC(=O)N2[C@@H](Cc3ccc(O)cc3)C(=O)N(Cc3cccc4sc(N5CCCCC5)nc34)C[C@@H]2N1C(=O)NCc1ccccc1 [Compound 218] | – | – | IC50 [1]: 1.6 ± 1.2 µM |
| C=CCN1CC(=O)N2[C@@H](Cc3ccc(O)cc3)C(=O)N(Cc3cccc4sc(N5CCOCC5)nc34)C[C@@H]2N1C(=O)NCc1ccccc1 [Compound 219] | – | – | IC50 [1]: 2.2 ± 0.7 µM |
| C=CCc1nc2c(CN3C[C@H]4N(C(=O)CN(CC=C)N4C(=O)NCc4ccccc4)[C@@H](Cc4ccc(O)cc4)C3=O)cccc2s1 [Compound 220] | – | – | IC50 [1]: 1.1 ± 0.3 µM |
| C=CCN1CC(=O)N2[C@@H](Cc3ccc(O)cc3)C(=O)N(Cc3cccc4sc(-c5ccccc5)nc34)C[C@@H]2N1C(=O)NCc1ccccc1 [Compound 221] | – | – | IC50 [1]: 4.7 ± 3.5 µM |
| C=CCN1CC(=O)N2[C@@H](Cc3ccc(O)cc3)C(=O)N(Cc3ccc(Cl)c4scnc34)C[C@@H]2N1C(=O)NCc1ccccc1 [Compound 222] | – | – | IC50 [1]: 3.8 ± 2.7 µM |
| C=CCN1CC(=O)N2[C@@H](Cc3ccc(O)cc3)C(=O)N(Cc3ccc(F)c4scnc34)C[C@@H]2N1C(=O)NCc1ccccc1 [Compound 223] | – | – | IC50 [1]: 0.6 ± 0.1 µM |
| C=CCN1CC(=O)N2[C@@H](Cc3ccc(O)cc3)C(=O)N(Cc3cccc4sc(C(=O)OCC)nc34)C[C@@H]2N1C(=O)NCc1ccccc1 [Compound 224] | – | – | IC50 [1]: 5.4 ± 1 µM |
| C=CCN1CC(=O)N2[C@@H](Cc3ccc(O)cc3)C(=O)N(Cc3cccc4sc(N)nc34)C[C@@H]2N1C(=O)NCc1ccccc1 [Compound 225] | – | – | IC50 [1]: 0.1 ± 0.1 µM |

Further lines, with some results ahead:

| GI50 (HCT116 cells; HCT-116, 48 h, Table 5) | GI50 (SW480 cells; SW480, 48 h, Table 5) | SMILES | other results |
| --- | --- | --- | --- |
| 1.67 µM | 5.25 µM | COc1cccc(CN2CC3N(C(=O)CN(C)N3C(=O)NCc3ccccc3)[C@@H](Cc3ccc(O)cc3)C2=O)c1OC (stereo partly drawn) [Compound 21] | – |
| 3.26 µM | 6.58 µM | CN(C)c1ccccc1CN1C[C@H]2N(C(=O)CN(C)N2C(=O)NCc2ccccc2)[C@@H](Cc2ccc(O)cc2)C1=O [Compound 22] | – |
| 25.4 µM | 3.9 µM | CN1CC(=O)N2[C@@H](Cc3ccc(O)cc3)C(=O)N(Cc3ccc(F)cc3C(F)(F)F)C[C@@H]2N1C(=O)NCc1ccccc1 [Compound 23] | – |
| 1.67 µM | 13.8 µM | CN(C)c1cc(Cl)ccc1CN1C[C@H]2N(C(=O)CN(C)N2C(=O)NCc2ccccc2)[C@@H](Cc2ccc(O)cc2)C1=O [Compound 24] | – |
| 1.81 µM | 24.5 µM | CCN(C)c1cccc(CN2C[C@H]3N(C(=O)CN(C)N3C(=O)NCc3ccccc3)[C@@H](Cc3ccc(O)cc3)C2=O)c1 [Compound 25] | – |
| 3.06 µM | 23.9 µM | CCN(CC)c1cccc(CN2C[C@H]3N(C(=O)CN(C)N3C(=O)NCc3ccccc3)[C@@H](Cc3ccc(O)cc3)C2=O)c1 [Compound 26] | – |
| 1.13 µM | 11.7 µM | CN(C)c1cc(F)ccc1CN1C[C@H]2N(C(=O)CN(C)N2C(=O)NCc2ccccc2)[C@@H](Cc2ccc(O)cc2)C1=O [Compound 27] | – |
| 5.47 µM | 3.57 µM | Cc1cc(C)c(N(C)C)c(CN2C[C@H]3N(C(=O)CN(C)N3C(=O)NCc3ccccc3)[C@@H](Cc3ccc(O)cc3)C2=O)c1 [Compound 28] | – |
| 7.93 µM | 16 µM | Cc1ccc(N(C)C)c(CN2C[C@H]3N(C(=O)CN(C)N3C(=O)NCc3ccccc3)[C@@H](Cc3ccc(O)cc3)C2=O)c1 [Compound 29] | – |
| 1.8 ± 0.1 µM | – | C#CCN1CC(=O)N2[C@@H](Cc3ccc(O)cc3)C(=O)N(Cc3cc(F)c(F)cc3N(C)C)C[C@@H]2N1C(=O)NCc1ccccc1 [Compound 81] | – |
| 1.7 ± 0.3 µM | – | C=CCN1CC(=O)N2[C@@H](Cc3ccc(O)cc3)C(=O)N(Cc3cccc(N4CCCC4=O)c3)C[C@@H]2N1C(=O)NCc1ccccc1 [Compound 123] | – |
